Results: US4551547A, “Biocidal 2-aryl-1, 3-cyclopentanedione enol ester compounds” (Union Carbide Corporation, priority 1983, dated 1985)
Values after ≈ are worked out from the molar mass of the structure shown.

Assays:
[1] = tested on: Cotton; assay: Post-emergent herbicidal test, cotton; type: in vivo; parameters: key: 1: no perceptible injury; 2: intermediate degrees of injury; 3: intermediate degrees of injury; 4: intermediate degrees of injury; 5: the plant was dead; conditions: 2500 parts per million, after ten days; for Post Emergent Herbicidal, Cotton: Table III; for Post-emergent Herbicidal, Cotton: Table II
Description: (§1) Suspensions of the test compounds were prepared by dissolving one gram of compound in 50 milliliters of acetone in which had been dissolved 0.1 gram (10 percent of the weight of compound) of an alkylphenoxyethanol sufactant, as an emulsifying or dispersing agent. The resulting solution was mixed into 160 milliliters of water to give roughly 200 milliliters of a suspension containing the compound in finely divided form. The thus prepared stock suspension contained 0.5 percent by weight of compound. The test concentrations employed in the tests described below were obtained by diluting the stock suspension with water. The test procedures were as follows:
(§2) Experiments were also conducted to determine the phytotoxicity of representative compositions with respect to healthy fresh plants. Solutions of the compounds were prepared as described above to provide a concentration of 2500 parts per million of the test compound. The test plants were sprayed in accordance with the procedure described above for the Mite Foliage Spray Test so as to deliver approximately 100 milliliters of test solutions to the leaves of each plant tested. The sprayed plants and controls were set aside for approximately one hour to allow the solutions to dry and were then placed in the greenhouse. After ten days the plants were visually inspected to determine the extent of foliage injury. A rating of 1 indicates no perceptible injury; 5 indicates the plant was dead and ratings of 2, 3 and 4 indicate intermediate degrees of injury based upon the number and extent to which leaves were injured.

[2] = tested on: Perennial rye grass; assay: Preliminary herbicide seed germination test (pre-emergent), perennial rye grass; type: in vivo, Solium perenne; parameters: key: 5: no seedling emerged; 4: few seedlings emerged and/or very severe stunting; 3: moderate reduction in stand and/or moderate stunting.; 2: very slight reduction in stand and/or slight stunting; 1: no injury, seedlings appear no different with respect to stand or growth than untreated controls; conditions: ten to twelve days after application
Description: as §1
(§3) The following seeds were used in this test:
Perennial rye grass--Solium perenne
(§4) Two […] mixtures were prepared as follows:
(§5) Each of the above mixtures was rolled separately in 5 gallon containers for approximately one-half hour on ball mill to insure uniform mixing of seeds and soil. For each compound four 3-inch pots were filled with soil to within 11/2 inches of top of pots. To two of these pots were added 70 cc. of Mixture I. To the remaining 2 pots were added 70 cc. of Mixture II. The seed-soil mixture was tamped firmly, and the pots were removed to the greenhouse and watered lightly. About 2 hours after planting, 25 milliliters of the test formulation were added to one pot containing Mixture I and one pot containing Mixture II. An equal volume of a water solution containing acetone and an emulsifier in the same concentration as the herbicidal mixture but without the candidate herbicide was also added to each of the soil-seed mixtures. These pots are used as check or control units. The test compounds were formulated by diluting the stock suspension with water to obtain the desired concentration of the compound in parts per million of the final formulation. Each compound was tested at the same concentration. […] Ratings were made according to the following designations: […]

[3] = tested on: Crabgrass; assay: Preliminary herbicide seed germination test (pre-emergent), crabgrass; type: in vivo, Digitaria sanguinalis; parameters: key: 5: no seedling emerged; 4: few seedlings emerged and/or very severe stunting; 3: moderate reduction in stand and/or moderate stunting.; 2: very slight reduction in stand and/or slight stunting; 1: no injury, seedlings appear no different with respect to stand or growth than untreated controls; conditions: ten to twelve days after application
Description: as §1, §3
Crabgrass--Digitaria sanguinalis
as §4, §5

[4] = tested on: Bean; assay: Post-emergent herbicidal test, bean; type: in vivo; parameters: key: 1: no perceptible injury; 2: intermediate degrees of injury; 3: intermediate degrees of injury; 4: intermediate degrees of injury; 5: the plant was dead; conditions: 2500 parts per million, after ten days; for Post Emergent Herbicidal, Bean: Table III; for Post-emergent Herbicidal, Bean: Table II
Description: as §1, §2

[5] = tested on: two-spotted mite (adults and nymphal stages); assay: Mite Foliage Spray Test (adults and nymphs); type: in vivo, Tetranychus urticae (Koch); parameters: key to Miticidal, Adult: A: Excellent Control; B: Partial Control; No Control; conditions: for LC50: Tetranychus urticae, foliar, Table III, ppm required for a 50 percent kill of mites, read-out: Miticidal LD50, Adult; for Miticidal, Adult: Table II, mortality count after four days
Description: Suspensions of the test compounds were prepared by dissolving one gram of compound in 50 milliliters of acetone in which had been dissolved 0.1 gram (10 percent of the weight of compound) of an alkylphenoxyethanol sufactant, as an emulsifying or dispersing agent. The resulting solution was mixed into 160 milliliters of water to give roughly 200 milliliters of a suspension containing the compound in finely divided form. The thus prepared stock suspension contained 0.5 percent by weight of compound. The test concentrations employed in the tests described below were obtained by diluting the stock suspension with water. The test procedures were as follows: Adults and nymphal stages of the two-spotted mite (Tetranychus urticae (Koch)), reared on Tender-green beam plants at 80±5° F. and 50±5 percent relative humidity, were the tests organisms. Infested leaves from a stock culture were placed of the primary leaves of two bean plants six to eight inches in height, growing in a two-and-a-half inch clay pot. 150-200 Mites, a sufficient number for testing, transferred from the excised leaves to the fresh plants in a period of twenty-four hours. Following the twenty-four hour transfer period, the excised leaves were removed from the infested plants. The test compounds were formulated by diluting the stock suspension with water to provide suspensions containing the desired amount of test compound per million parts of final formulation. The potted plants (one pot per compound) were placed on a revolving turntable and sprayed with 100-110 milliliters of tests compound formulation by use of a DeVilbis spray gun set at 40 psi, air pressure. This application, which lasted 30 seconds, was sufficient to wet the plants to run-off. As a control, 100-110 milliliters of a water solution containing acetone and emulsifier in the same concentrations as the test compound formulation, but containing no test compound, were also sprayed on infested plants. The sprayed plants were held at 80±5° F. and 50±5 percent relative humidity for four days, after which, a mortality count of motile forms was made on the leaves of the test plants. Any individual which was capable of locomotion upon prodding was considered living. In these tests the pesticidal activity of the compounds against mites and mite eggs was rated as follows: Tests were conducted in accordance with the procedures given at pages 17 to 21 supra. The results are expressed in the same manner as used in Table II, except with respect to miticidal activity. For mite adult and mite egg comparison purposes, results are given in parts per million (ppm) required for a 50 percent kill of mites or eggs, respectively.

Cc1ccccc1C1=C(OC(=O)C(C)(C)C)C2CCCCC2C1=O (stereo not drawn) [drawing 24]
Post Emergent Herbicidal, Cotton [1]: 3 | Pre-emergent Herbicidal, Rye ([2]; Table III): 5 | Pre-emergent Herbicidal, Crabgrass ([3]; Table III): 3 | Post Emergent Herbicidal, Bean [4]: 2 | LC50 [5]: 15 µg/mL (≈ 46 µM)

CCCCCCCCCCCCCCCC(=O)OC1=C(c2ccccc2C)C(=O)C2CCCCC12 (stereo not drawn) [drawing 17]
Post Emergent Herbicidal, Cotton [1]: 2 | Pre-emergent Herbicidal, Rye ([2]; Table III): 4 | Pre-emergent Herbicidal, Crabgrass ([3]; Table III): 3 | Post Emergent Herbicidal, Bean [4]: 1 | LC50 [5]: 20 µg/mL (≈ 41.6 µM)

CC(=O)OC1=C(c2ccc(C)cc2C)C(=O)C2CCCCC12 (stereo not drawn) [Compound 25]
Post-emergent Herbicidal, Cotton [1]: 3 | Pre-emergent Herbicidal, Rye ([2]; Table II): 5 | Pre-emergent Herbicidal, Crabgrass ([3]; Table II): 5 | Post-emergent Herbicidal, Bean [4]: 1 | Miticidal, Adult [5]: A

CCCCCCCCCC(=O)OC1=C(c2ccccc2C)C(=O)c2ccccc21 [reference compound]
Post Emergent Herbicidal, Cotton [1]: 1 | Pre-emergent Herbicidal, Rye ([2]; Table III): 1 | Pre-emergent Herbicidal, Crabgrass ([3]; Table III): 1 | Post Emergent Herbicidal, Bean [4]: 1 | LC50 [5]: 500 µg/mL (≈ 1280 µM)

CCCCC(CC)C(=O)OC1=C(c2cc(C)ccc2C)C(=O)C(C)C1 (stereo not drawn) [Compound 17]
Post-emergent Herbicidal, Cotton [1]: 3 | Pre-emergent Herbicidal, Rye ([2]; Table II): 3 | Pre-emergent Herbicidal, Crabgrass ([3]; Table II): 1 | Post-emergent Herbicidal, Bean [4]: 3 | Miticidal, Adult [5]: A

CCCCCCCCCCCCCCCC(=O)OC1=C(c2ccccc2C)C(=O)C2CCCCC12 (stereo not drawn) [Compound 24]
Post-emergent Herbicidal, Cotton [1]: 2 | Pre-emergent Herbicidal, Rye ([2]; Table II): 4 | Pre-emergent Herbicidal, Crabgrass ([3]; Table II): 3 | Post-emergent Herbicidal, Bean [4]: 1 | Miticidal, Adult [5]: A

Cc1ccc(C)c(C2=C(OC(=O)C(C)C)CCC2=O)c1 [Compound 12]
Post-emergent Herbicidal, Cotton [1]: 3 | Pre-emergent Herbicidal, Rye ([2]; Table II): 1 | Pre-emergent Herbicidal, Crabgrass ([3]; Table II): 1 | Post-emergent Herbicidal, Bean [4]: 2 | Miticidal, Adult [5]: B

Cc1ccc(C)c(C2=C(OC(=O)C(C)(C)C)C3CCCCC3C2=O)c1 (stereo not drawn) [Compound 31]
Post-emergent Herbicidal, Cotton [1]: 1 | Pre-emergent Herbicidal, Rye ([2]; Table II): 1 | Pre-emergent Herbicidal, Crabgrass ([3]; Table II): 1 | Post-emergent Herbicidal, Bean [4]: 1 | Miticidal, Adult [5]: A

CCCCC(CC)C(=O)OC1=C(c2ccccc2Cl)C(=O)CC1 (stereo not drawn) [Compound 1]
Post-emergent Herbicidal, Cotton [1]: 3 | Pre-emergent Herbicidal, Rye ([2]; Table II): 5 | Pre-emergent Herbicidal, Crabgrass ([3]; Table II): 5 | Post-emergent Herbicidal, Bean [4]: 3 | Miticidal, Adult [5]: A

CC(=O)OC1=C(c2cc(C)ccc2C)C(=O)C2CCCCC12 (stereo not drawn) [Compound 28]
Post-emergent Herbicidal, Cotton [1]: 1 | Pre-emergent Herbicidal, Rye ([2]; Table II): 3 | Pre-emergent Herbicidal, Crabgrass ([3]; Table II): 2 | Post-emergent Herbicidal, Bean [4]: 2 | Miticidal, Adult [5]: A

CCCCC(CC)C(=O)OC1=C(c2ccc(C)cc2C)C(=O)C2CCCCC12 (stereo not drawn) [Compound 26, 3-(2-ethylhexanoyloxy)-2-(2',4'-dimethylphenyl)-4,5,6,7,8,9-hexahydro-2-indenone]
Post-emergent Herbicidal, Cotton [1]: 2 | Pre-emergent Herbicidal, Rye ([2]; Table II): 5 | Pre-emergent Herbicidal, Crabgrass ([3]; Table II): 1 | Post-emergent Herbicidal, Bean [4]: 2 | Miticidal, Adult [5]: A

CCCCC(CC)C(=O)OC1=C(c2ccccc2C)C(=O)c2ccccc21 (stereo not drawn) [reference compound]
Post Emergent Herbicidal, Cotton [1]: 1 | Pre-emergent Herbicidal, Rye ([2]; Table III): 1 | Pre-emergent Herbicidal, Crabgrass ([3]; Table III): 1 | Post Emergent Herbicidal, Bean [4]: 1 | LC50 [5]: 500 µg/mL (≈ 1380 µM)

CC(=O)OC1=C(c2cc(C)ccc2C)C(=O)C(C)C1 (stereo not drawn) [Compound 15]
Post-emergent Herbicidal, Cotton [1]: 2 | Pre-emergent Herbicidal, Rye ([2]; Table II): 4 | Pre-emergent Herbicidal, Crabgrass ([3]; Table II): 2 | Post-emergent Herbicidal, Bean [4]: 2 | Miticidal, Adult [5]: A

CCCCCCCCCC(=O)OC1=C(c2ccccc2C)C(=O)C2CCCCC12 (stereo not drawn) [Compound 23]
Post-emergent Herbicidal, Cotton [1]: 3 | Pre-emergent Herbicidal, Rye ([2]; Table II): 5 | Pre-emergent Herbicidal, Crabgrass ([3]; Table II): 3 | Post-emergent Herbicidal, Bean [4]: 2 | Miticidal, Adult [5]: A

CC(=O)OC1=C(c2cc(C)ccc2C)C(=O)CC1 [Compound 11]
Post-emergent Herbicidal, Cotton [1]: 2 | Pre-emergent Herbicidal, Rye ([2]; Table II): 4 | Pre-emergent Herbicidal, Crabgrass ([3]; Table II): 1 | Post-emergent Herbicidal, Bean [4]: 2 | Miticidal, Adult [5]: A

CCCCCCCCCC(=O)OC1=C(c2cc(C)ccc2C)C(=O)C2CCCCC12 (stereo not drawn) [drawing 19]
Post Emergent Herbicidal, Cotton [1]: 1 | Pre-emergent Herbicidal, Rye ([2]; Table III): 1 | Pre-emergent Herbicidal, Crabgrass ([3]; Table III): 1 | Post Emergent Herbicidal, Bean [4]: 1 | LC50 [5]: 25 µg/mL (≈ 60.9 µM)

CCCCCCCCCCCCCCCC(=O)OC1=C(c2ccccc2C)C(=O)CC1 [Compound 8]
Post-emergent Herbicidal, Cotton [1]: 2 | Pre-emergent Herbicidal, Rye ([2]; Table II): 2 | Pre-emergent Herbicidal, Crabgrass ([3]; Table II): 2 | Post-emergent Herbicidal, Bean [4]: 3 | Miticidal, Adult [5]: A

CCCCC(CC)C(=O)OC1=C(c2ccccc2C)C(=O)C2CCCCC12 (stereo not drawn) [Compound 21, 3-(2-Ethylhexanoyloxy)-2-(2'-methylphenyl)-4,5,6,7,8,9-hexahydro-2-indenone]
Post-emergent Herbicidal, Cotton [1]: 2 | Pre-emergent Herbicidal, Rye ([2]; Table II): 3 | Pre-emergent Herbicidal, Crabgrass ([3]; Table II): 2 | Post-emergent Herbicidal, Bean [4]: 1 | Miticidal, Adult [5]: A

CCCCC(CC)C(=O)OC1=C(c2ccc(C)cc2C)C(=O)CC1 (stereo not drawn) [Compound 9, 3-(2-ethylhexanoyloxy)-2-(2', 4'-dimethylphenyl)-2-cyclopentenone]
Post-emergent Herbicidal, Cotton [1]: 1 | Pre-emergent Herbicidal, Rye ([2]; Table II): 5 | Pre-emergent Herbicidal, Crabgrass ([3]; Table II): 4 | Post-emergent Herbicidal, Bean [4]: 2 | Miticidal, Adult [5]: A

Cc1ccccc1C1=C(OC(=O)C(C)(C)C)c2ccccc2C1=O [reference compound]
Post Emergent Herbicidal, Cotton [1]: 1 | Pre-emergent Herbicidal, Rye ([2]; Table III): 2 | Pre-emergent Herbicidal, Crabgrass ([3]; Table III): 2 | Post Emergent Herbicidal, Bean [4]: 1 | LC50 [5]: 100 µg/mL (≈ 312 µM)

CCCCC(CC)C(=O)OC1=C(c2cc(C)ccc2C)C(=O)C2CCCCC12 (stereo not drawn) [Compound 30, 3-(2-ethylhexanoyloxy)-2-(2',5'-dimethylphenyl)-4,5,6,7,8,9-hexahydro-2-indenone]
Post-emergent Herbicidal, Cotton [1]: 1 | Pre-emergent Herbicidal, Rye ([2]; Table II): 1 | Pre-emergent Herbicidal, Crabgrass ([3]; Table II): 1 | Post-emergent Herbicidal, Bean [4]: 1 | Miticidal, Adult [5]: A
